# Entries after “also recorded” stand apart in the source; their conditions may differ.
# Key:
# [1] = target: Yeast α-glucosidase enzyme; experiment: α-Glucosidase inhibition assay (PNPG substrate); assay type: biochemical; conditions: for IC50 / IC50 (μg/mL), α-glucosidase inhibitory activity: NA = no inhibitory activity, acarbose positive control
# Method: Yeast α-glucosidase enzyme was used in this study. In general, α-glucosidase enzymes can be obtained from several sources, for example, Saccharomyces cerevisiae, Rattus norvegicus, and GANC-human.
# The assays were performed following previous protocols. […] Each sample was initially dissolved in 50% DMSO. Then, 0.1 U/mL of α-glucosidase (40 μL) in phosphate buffer (pH 6.8) was added to each well of a 96-well plate which contained the sample solution (10 μL). The plate was pre-incubated at 37 °C for 10 min. Then, 2 mM p-nitrophenol-α-D-glucopyranoside (50 μL) was added, and the mixture was incubated again at 37 °C for 20 min. Finally, 1 M Na2CO3 solution (100 μL) was added to terminate the reaction. The absorbance of the mixture was measured at 405 nm using a microplate reader. Two-fold serial dilution was performed for IC50 determination. The drug acarbose was used as the positive control.
# [2] = tested on: Yeast α-glucosidase enzyme; experiment: Enzyme kinetics study, Lineweaver–Burk plot and secondary plot; assay type: biochemical; conditions: for Mode of enzyme inhibition: from Lineweaver–Burk plot; for Km / Vmax: PNPG 0.25–2.0 mM
# Method: A kinetics study was then performed on compound 3 to analyze the mode of enzyme inhibition using various substrate concentrations (0.25–2.0 mM).
# The mode of enzyme inhibition of the test compound was determined using the double reciprocal Lineweaver–Burk plot (1/V vs. 1/[S]). The experiment was performed by varying the PNPG concentrations (0.25, 0.5, 1.0, and 2.0 mM) in the absence or presence of compound 3 (4 μM and 8 μM) or acarbose (930 μM and 465 μM). The secondary plot was constructed by replotting the slopes of the lines against inhibitor concentrations, and the Ki was calculated from the line equation of the plot.
structure (smiles),measurement,setting,value
"COc1cc2c(cc1O)CCc1cc(O)cc(OC)c1-2 [6-Methoxy coelonin (5), 6-methoxycoelonin]",IC50,[1],225 ± 7.8 µM
same,"IC50 (μg/mL), α-glucosidase inhibitory activity",[1],61.2 ± 2.2 µg/mL
"COc1cc(CCC(=O)OCCCc2cc(OC)c(O)c(OC)c2)ccc1O [Dihydrosinapyl dihydroferulate (4), dihydrosinapyl dihydroferulate]",α-Glucosidase inhibitory activity (in words),[1],total loss of activity
"COc1cc(O)cc2c1-c1cc(O)c(O)cc1CC2 [5-methoxy-9,10-dihydrophenanthrene-2,3,7-triol]",IC50,[1],115 ± 9.1 µM
same,"IC50 (μg/mL), α-glucosidase inhibitory activity",[1],29.7 ± 2.3 µg/mL
"COc1cc(CCCOC(=O)CCc2ccc(O)cc2)ccc1O [Dihydroconiferyl dihydro-p-coumarate (9), dihydroconiferyl dihydro-p-coumarate]",IC50,[1],267 ± 8.6 µM
same,"IC50 (μg/mL), α-glucosidase inhibitory activity",[1],88.1 ± 2.9 µg/mL
"COc1cc2c(cc1O)CCc1c(Oc3cc4c(cc3OC)-c3c(cc(O)cc3OC)CC4)c(O)cc(OC)c1-2 [Aerimultin A (1), aerimultin A]",IC50,[1],30.9 ± 1.9 µM
same,"IC50 (μg/mL), α-glucosidase inhibitory activity",[1],16.8 ± 1.0 µg/mL
"COc1cc2c(ccc3c(-c4c(O)cc(OC)c5c4ccc4cc(O)c(OC)cc45)c(O)cc(OC)c32)cc1O [Agrostonin (8), agrostonin]",IC50,[1],37.2 ± 4.5 µM
same,"IC50 (μg/mL), α-glucosidase inhibitory activity",[1],20.1 ± 2.5 µg/mL
"COc1cc(O)cc(CCc2ccc(O)c(OC)c2)c1 [Gigantol (6), gigantol]",IC50,[1],191 ± 6.8 µM
same,"IC50 (μg/mL), α-glucosidase inhibitory activity",[1],52.5 ± 1.9 µg/mL
"COc1cc2c(ccc3c(-c4c(O)cc5c6c4ccc4cc(O)c(OC)c(c46)CO5)c(O)cc(OC)c32)cc1O [Aerimultin B (2), aerimultin B]",IC50,[1],77 ± 2.5 µM
same,"IC50 (μg/mL), α-glucosidase inhibitory activity",[1],41.8 ± 1.3 µg/mL
"COc1cc(O)c(-c2c(O)cc(OC)c3c2ccc2cc(O)c(O)cc23)c2ccc3cc(O)c(O)cc3c12 [Aerimultin C (3), aerimultin C]",Mode of enzyme inhibition,[2],non-competitive inhibition; also recorded: potent non-competitive inhibitor
same,Mode of enzyme inhibition,[2]; listed as aerimultin (3),non-competitive type of inhibition
same,Ki,[2]; from secondary plot (slopes vs inhibitor concentrations),4.18 µM
same,Km,[2]; inhibitor dose 4 μM,1220 µM
same,Vmax,[2]; inhibitor dose 4 μM,0.055 ∆OD/min
same,Km,[2]; inhibitor dose 8 μM,1200 µM
same,Vmax,[2]; inhibitor dose 8 μM,0.035 ∆OD/min
same,α-Glucosidase inhibitory activity (in words),[1],most potent activity
same,IC50,[1],5.2 ± 0.7 µM
same,"IC50 (μg/mL), α-glucosidase inhibitory activity",[1],2.7 ± 0.4 µg/mL
"COc1c(O)cc2c3c1COc1cc(O)cc(c1-3)CC2 [Imbricatin (7), imbricatin]",IC50,[1],166 ± 7.7 µM
same,"IC50 (μg/mL), α-glucosidase inhibitory activity",[1],44.9 ± 2.1 µg/mL
